According to patent publication US10160773B2, “Method for inducing cytotoxicity in cancer cells” (King Fahd University of Petroleum and Minerals, priority 2016, dated 2018):

How the values were obtained:
A549 (lung cancer cells) = experiment: In vitro cytotoxic activity, MTT assay, A549; type: cell-based, human; conditions: 24 h incubation with complex, mean ± standard deviation
Procedure: (§1) To examine the possible anticancer effect of complexes 1, 2, and cisplatin, a panel of three human tumor cell lines, A549 (lung cancer cells), MCF7 (breast cancer cells) and HCT15 (colon cancer cells) was used. The different human carcinoma cell cultures (A549, MCF7, HCT15) were first seeded at the concentration of 2×10^4 cells per mL in their respective growth mediums containing 10% FBS (fetal bovine serum) in a 96-well tissue culture plate and were incubated for 72 h at 37° C., 5% CO2 in air and 90% relative humidity in a CO2 incubator. After that the cell cultures were incubated for 24 h with 100 μL of cisplatin and the complexes (1-3) having 100, 50, 25 and 12.5 μM concentrations, prepared in growth medium. Further, the cultures were incubated with 100 μL of vital mitochondrial tetrazolium dye (3-(4,5-dimethylthiazol-2-yl)-2,5-diphenyltetrazolium bromide) (0.5 mg/ml) in a CO2 incubator at 37° C. in the dark for 4 h. After incubation, purple colored formazan crystals were formed due to the reduction of dye by mitochondrial succinate dehydrogenase enzyme. The resultant crystals were solublized by adding 100 μL of dimethylsulfoxide (DMSO). The colored solution formed was thoroughly mixed and read spectrophotometrically at 570 nm with Lab systems Multiskan EX-Enzyme-linked immunosorbent assay (EX-ELISA) reader against a reagent blank. All data presented are mean±standard deviation.
(§2) The anticancer activity of complexes 1-3 as well as cisplatin was evaluated against a panel of representative human tumor cell lines, which include, lung cancer cells (A549), breast cancer cells (MCF7) and colon cancer cells (HCT15). The results of in vitro cytotoxic activity are expressed as IC50 (concentration causing 50% reduction in cell viability) and are presented in Table 4. […] For 1, the IC50 values are closer to cisplatin. In going from 1 to 2, the substitution of two chlorine atoms by the chelating diamine ligand brought about a 1.5-3 times decrease in the antiproliferative activity of 2.

[1] = test system: MCF7 (breast cancer cells); experiment: In vitro cytotoxic activity, MTT assay, MCF7; type: cell-based, human; conditions: 24 h incubation with complex, mean ± standard deviation
Procedure: as §1, §2

[2] = test system: HCT15 (colon cancer cells); experiment: In vitro cytotoxic activity, MTT assay, HCT15; type: cell-based, human; conditions: 24 h incubation with complex, mean ± standard deviation
Procedure: as §1, §2

Lysozyme protein = target: T1, Lysozyme protein (Gallus gallus, UniProt P00698); experiment: Interaction with lysozyme by cyclic voltammetry; design: species or system chicken; conditions: 0.2 mM complex
T1 construct: the Lysozyme protein attained from chicken egg white; purchased Sigma-Aldrich; host or cells: chicken egg white (natural source)
Procedure: (§3) The voltammetric measurements were performed by using three electrode based Auto Lab electrochemical workstation (Netherland). The working electrode was glassy carbon electrode (GCE), while Ag/AgCl and platinum were used as reference counter electrodes respectively. The weights of the chemicals were measured by using GR-2000 electrical balance. The pH of the buffer was controlled by Accumet® XL50 pH meter. For electrochemical analysis, the compounds 1 and 2 were dissolved in the ethanol as their solubility was very poor in aqueous medium. Prior to each analysis, the GCE was polished as a mirror like surface with alumina slurry on the synthetic clothe. The cyclic voltammograms for various analyses were recorded from 0.0 V to +1.3 V with a scan rate of 0.1 V/s. Electrochemical behavior may be studied using the methods described by Al-Jaroudi et al. and Seliman et al. (incorporated by reference) and well known model proteins. See S. S. Al-Jaroudi, M. Altaf, A. Al-Saadi, A.-N. Kawde, S. Altuwaijri, S. Ahmad and A. A. Isab, Biometals, 2015, 28, 827-844; and A. Seliman, M. Altaf, A. Kawde, M. Wazeer and A. Isab, J. Coord. Chem., 2014, 67, 3431-3443, each incorporated herein by reference in their entirety.
Moreover, the interaction of these compounds was also explored with the Lysozyme protein attained from chicken egg white.

[3] = test system: A549, MCF7 and HCT15 cells; experiment: In vitro cytotoxic activity, statements on the whole panel of three tumor cell lines; type: cell-based, human
Procedure: as §1, with “After incubation, purple colored formazan crystals were formed due to the reduction of dye by mitochondrial succinate dehydrogenase enzyme. The resultant crystals were solublized by adding 100 μL of dimethylsulfoxide (DMSO).” left out, “All data presented are mean±standard deviation.” left out
The anticancer activity of complexes 1-3 as well as cisplatin was evaluated against a panel of representative human tumor cell lines, which include, lung cancer cells (A549), breast cancer cells (MCF7) and colon cancer cells (HCT15). […]

[4] = Cyclic voltammetry of the complexes at glassy carbon electrode; type: physicochemical; conditions: cyclic voltammetric measurements
Procedure: as §3, with “See S. S. Al-Jaroudi, M. Altaf, A. Al-Saadi, A.-N. Kawde, S. Altuwaijri, S. Ahmad and A. A. Isab, Biometals, 2015, 28, 827-844; and A. Seliman, M. Altaf, A. Kawde, M. Wazeer and A. Isab, J. Coord. Chem., 2014, 67, 3431-3443, each incorporated herein by reference in their entirety.” left out
To get an insight into the reactivity of the complexes, the interactions of complexes 1 and 2 with model proteins, L-tyrosine, glutathione and lysozyme were studied electrochemically. The electrochemical behavior of complexes 1 and 2 in the presence of the proteins was analyzed by cyclic voltammetric technique (CV). […]

[5] = Solubility in aqueous medium; type: physicochemical

T1 sequence (P00698 19-147): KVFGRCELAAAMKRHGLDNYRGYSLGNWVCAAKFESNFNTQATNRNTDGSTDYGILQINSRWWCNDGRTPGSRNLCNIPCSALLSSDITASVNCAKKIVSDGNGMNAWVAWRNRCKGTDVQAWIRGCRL

Row | Compound | IC50 (A549 (lung cancer cells)) [µM] | IC50 [1] [µM] | IC50 [2] [µM] | effect of successive addition of Lysozyme on the complex peaks (Lysozyme protein) | interaction with Lysozyme (comparison) (Lysozyme protein) | antiproliferative potency, rank among the complexes ([3]; A549, MCF7, HCT15) | stability of gold(III) center during reaction with L-tyrosine, glutathione and lysozyme [4] | solubility in aqueous medium [5] | decrease in the antiproliferative activity in going from 1 to 2 ([3]; 2 compared with 1, three cell lines)
1 | N.N.[Cl][Pt][Cl] [Cisplatin, cisplatin, reference compound] | 42.9 ± 1.99 | 23.1 ± 3.78 | 23.1 ± 3.78 | – | – | – | – | – | –
2 | NC(c1cccc2ccccc12)C(N)c1cccc2ccccc12.O.O.[Au+3].[Cl-].[Cl-].[Cl-] (stereo not drawn) [Complex 1, [Au(npen)Cl2]Cl.2H2O] | 28.8 ± 4.02 | 11.8 ± 2.6 | 9.4 ± 1.93 | decrease in the current intensities of the complex peaks | more significant | least active | remained stable | very poor | –
3 | [Au(npen)2]Cl3 [Complex 2] | 10.3 ± 2.82 | 7.77 ± 1.82 | 4.23 ± 1.31 | decrease in the current intensities of the complex peaks | – | – | remained stable | very poor | 1.5-3 times
